# Experimental data as given in patent US6703372B1, “Macrolides” (Biochemie S.A., priority 1999, dated 2004).
# Like-named read-outs stand apart in the source and are kept apart here.
# Columns and labels:
# [1] = normal air humidity conditions, within some hours, stated as known, cited from earlier work
# [2] = stability of the crystalline structure (X-ray powder diffraction pattern) under normal air humidity conditions; type: physicochemical; details: kept for several weeks under normal air humidity conditions
# Protocol: “Stable monohydrate” as used herein includes a compound of formula I in the form of a monohydrate which is crystalline and which maintains its crystalline structure for at least 24 hours, e.g. for several weeks, under normal, e.g. normal air humidity, conditions. The crystalline structure of azithromycin in the form of a monohydrate may be determined by its (known) X-ray powder diffraction pattern. The X-ray powder diffraction pattern and the IR spectrum of azithromycin in the form of a monohydrate obtained according to the following examples corresponding to that of known (unstable) azithromycin in the form of a monohydrate.
Compound,stability of the crystal structure ([1]; listed as azithromycin in the form of a monohydrate),crystallinity and X-ray powder diffraction pattern on storage [2],stability of the crystal structure [1]
CC[C@H]1OC(=O)[C@H](C)[C@@H](O[C@H]2C[C@@](C)(OC)[C@@H](O)[C@H](C)O2)[C@H](C)[C@@H](O[C@@H]2O[C@H](C)C[C@H](N(C)C)[C@H]2O)[C@](C)(O)C[C@@H](C)CN(C)[C@H](C)[C@@H](O)[C@]1(C)O [9-deoxo-9a-aza-9a-methyl-9a-homoerythromycin A],unstable,maintains its crystallinity and its X-ray powder diffraction pattern,
"CC[C@H]1OC(=O)[C@H](C)[C@@H](O[C@H]2C[C@@](C)(OC)[C@@H](O)[C@H](C)O2)[C@H](C)[C@@H](O[C@@H]2O[C@H](C)C[C@H](N(C)C)[C@H]2O)[C@](C)(O)C[C@@H](C)CN(C)[C@H](C)[C@@H](O)[C@]1(C)O [azithromycin in the form of a dihydrate, 9-deoxo-9a-aza-9a-methyl-9a-homoerythromycin A, reference compound]",,,not to break down within some hours
